pIC50: −log10 of the molar value. Where two headings read alike, the source gives them in different places. Where a SMILES comes first, the peptide text is derived from it.
Key:
[1] = target: T1, Trypsin, from human pancreas (Homo sapiens, UniProt P07477)
Chymase, from human skin [2] = target: T2, Chymase, from human skin (Homo sapiens, UniProt P23946)
T2 sequence (P23946 22-247): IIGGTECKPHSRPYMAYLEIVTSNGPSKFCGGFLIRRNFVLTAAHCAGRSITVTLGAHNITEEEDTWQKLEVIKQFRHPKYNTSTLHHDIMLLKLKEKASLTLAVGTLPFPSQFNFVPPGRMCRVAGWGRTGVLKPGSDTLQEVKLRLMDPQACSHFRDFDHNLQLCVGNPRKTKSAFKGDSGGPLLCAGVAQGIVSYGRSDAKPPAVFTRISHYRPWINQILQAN

[3] = target: T3, CathepsinG, from human neutrophils (Homo sapiens, UniProt P08311); assay: Enzymatic assay, cathepsin G; conditions: Cathepsin G IC50
T3 sequence (P08311 21-244): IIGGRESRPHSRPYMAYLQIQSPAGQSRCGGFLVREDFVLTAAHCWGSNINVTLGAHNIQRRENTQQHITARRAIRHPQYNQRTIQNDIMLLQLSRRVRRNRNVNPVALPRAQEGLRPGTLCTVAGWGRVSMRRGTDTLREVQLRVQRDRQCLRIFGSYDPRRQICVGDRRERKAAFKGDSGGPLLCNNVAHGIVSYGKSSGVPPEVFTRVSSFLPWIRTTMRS

[4] = target: T4, Elastase from human neutrophils (Homo sapiens, UniProt P08246); assay: Enzymatic assay, elastase
T4 sequence (P08246 30-267): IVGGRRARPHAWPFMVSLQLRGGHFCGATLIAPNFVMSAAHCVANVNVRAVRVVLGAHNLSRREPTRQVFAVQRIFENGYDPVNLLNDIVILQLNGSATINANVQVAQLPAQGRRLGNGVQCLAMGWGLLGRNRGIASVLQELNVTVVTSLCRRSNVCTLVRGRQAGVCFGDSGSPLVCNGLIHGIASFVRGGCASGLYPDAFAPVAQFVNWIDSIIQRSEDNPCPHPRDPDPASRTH

[5] = target: T5, Chymotrypsin, from human pancreas (Homo sapiens, UniProt P17538)
T5 sequence (P17538 19-263): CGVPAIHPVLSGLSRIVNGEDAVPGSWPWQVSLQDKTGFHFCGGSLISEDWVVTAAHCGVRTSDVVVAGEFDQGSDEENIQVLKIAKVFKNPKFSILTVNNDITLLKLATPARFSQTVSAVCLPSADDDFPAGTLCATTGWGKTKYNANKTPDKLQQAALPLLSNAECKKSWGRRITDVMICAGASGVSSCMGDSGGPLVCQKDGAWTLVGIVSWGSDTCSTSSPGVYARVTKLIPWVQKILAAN

[6] = target: Thrombin, from Human Plasma (Homo sapiens, UniProt P00734); assay: Enzymatic assay, thrombin
[7] = Pharmacokinetic study after single oral (gavage) and intravenous administration in rats; conditions: rat
Procedure: 2.6. Pharmacokinetic Study (PK)
Pharmacokinetic Study after Single Oral (Gavage) and Intravenous Administration in Rats
Blood samples (approx. 0.24 ml) were taken following the schedule below at different time points into heparinized tubes by automated blood sampling using the DiLab AccuSampler. When a problem occurred during automated blood sampling, blood was sampled by retro-orbital bleeding under light isoflurane anesthesia. Samples were taken at the following time points: 0, 5 min (only i.v.), 15, 30 min and 1, 2, 4, 8, 16, 24 and 36 (only p.o.) hours and added to heparinized tubes. Plasma was removed from pelleted cells upon centrifugation and frozen at −80° C. prior to HPLC-MS analysis.
Preparation of the Plasma Calibration Samples
“Blank” rat plasma from untreated animals was used. […] The OASIS® HLB cartridges were conditioned with 1 ml of methanol and then with 1 ml of 1% NH3 in water. Samples were then diluted with 400 μl of 1% NH3 in water and loaded. The plate was washed with 1 ml of methanol/1% NH3 in water 5/95. Elution was performed using 1 ml of 0.1% TFA in methanol.
The plate containing eluates was introduced into the concentrator system and taken to dryness. The residues were dissolved in 100 μl of formic acid 0.1%/acetonitrile, 95/5 (v/v) and analysed in the HPLC/MS on a reverse phase analytical column (Jupiter C18, 50×2.0 mm, 5 μm, Phenomenex), using gradient elution (mobile phases A: 0.1% formic acid in water, B: Acetonitrile; from 5% B to 100% B in 2 min.).
Preparation of Plasma Samples
From each sample 100 μl of plasma were taken for the extraction. If the volume was less than 100 μl the appropriate amount of “blank” mouse plasma was added in order to keep the matrix identical to the calibration curve. Samples were then spiked with IS and processed as described for the calibration curve.
Pharmacokinetic Evaluation
The area under the curve AUC was calculated by the linear trapezoidal rule. AUC(t-∞) was estimated as Ct/b (b: elimination rate constant). […] the sum of AUC(0-t) and AUC(t-∞). Elimination half-life was calculated by the linear regression on at least three data points during the elimination phase. The time intervals selected for the half-life determinations were evaluated by the correlation coefficient (r^2), which should be at least above 0.85 and most optimally above 0.96. In case of i.v. administration the initial concentration at tzero was determined by extrapolation of the curve through the first two time points.

[8] = target: T1, Trypsin, from human pancreas; assay: Enzymatic assay, trypsin; conditions: at 100 μM
[9] = format: in vitro ADME; conditions: 10 µM
Procedure: 405 μl of plasma/albumin solution were placed in a polypropylene (PP) tube and spiked with 45 μl of compound from a […] solution B, derived from 135 μl of PBS and 15 μl of 1 mM peptide in PBS, pH 7.4. 150 μl aliquots were transferred into individual wells of the 10 kDa filter plate (Millipore MAPPB 1010 Biomax membrane). For “0 minutes controls”: 270 μl of PBS were placed in a PP tube and 30 μl of stock solution B was added and vortexed. 150 μl of control solution were placed into one well of the filter plate and served as “filtered control”.
Further 150 μl of control solution were placed directly into a receiver well (reserved for filtrate) and served as “not-filtered control”. The entire plate including evaporation lid was incubated for 60 min at 37° C. Plasma samples (rat plasma: Harlan Sera lab UK, human plasma: Blutspendezentrum Zürich) were centrifuged at least for 2 h at 4300 rpm (3500 g) and 15° C. in order to yield 100 filtrate. For “serum albumin”-samples (freshly prepared human albumin: Sigma A-4327, rat albumin: Sigma A-6272, all at 40 mg/ml concentration in PBS) approximately 1 hour of centrifugation was sufficient. The filtrates in the receiver PP plate were analysed by LC/MS as follower follows: Column: Jupiter C18 (Phenomenex), mobile phases: (A) 0.1% formic acid in water and (B) acetonitrile, gradient: 5%-100% (B) in 2 minutes, electrospray ionization, MRM detection (triple quadrupole). The peak areas were determined and triplicate values were averaged. The binding was expressed in percent of the (filtered and not-filtered time point 0 min) control 1 and 2 by: 100−(100×T60/T0). The average from these values was then calculated.

[10] = test system: Tryptase, from human lung; assay: Enzymatic assay, tryptase; conditions: at 100 μM
[11] = target: T5, Chymotrypsin, from human pancreas; assay: Enzymatic assay, chymotrypsin; conditions: at 100 μM
Chymase, from human skin [12] = target: T2, Chymase, from human skin; assay: Enzymatic assay, chymase
[13] = target: Urokinase from human urine (Homo sapiens, UniProt P00749); assay: Enzymatic assay, urokinase
[14] = target: Coagulation Factor Xa, from uman plasma (Homo sapiens, UniProt P00742); assay: Enzymatic assay, coagulation factor Xa
Sequence of Coagulation Factor Xa, from uman plasma (P00742 235-488 limits assumed): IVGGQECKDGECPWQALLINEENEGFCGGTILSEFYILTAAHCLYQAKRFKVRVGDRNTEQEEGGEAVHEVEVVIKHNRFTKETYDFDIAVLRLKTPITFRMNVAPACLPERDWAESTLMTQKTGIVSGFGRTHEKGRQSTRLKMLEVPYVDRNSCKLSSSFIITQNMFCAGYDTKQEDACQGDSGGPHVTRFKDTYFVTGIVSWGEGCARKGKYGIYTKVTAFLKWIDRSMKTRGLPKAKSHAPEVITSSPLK
Sequence of Coagulation Factor Xa, from uman plasma (P00742 41-179 limits assumed): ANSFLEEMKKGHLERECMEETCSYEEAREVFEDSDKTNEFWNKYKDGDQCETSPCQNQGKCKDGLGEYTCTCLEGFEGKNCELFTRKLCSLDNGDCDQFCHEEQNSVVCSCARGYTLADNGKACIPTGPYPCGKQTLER

In the case of `CC[C@H](C)[C@@H]1NC(=O)[C@@H]2CCCN2C(=O)[C@@H]2CCCN2C(=O)[C@H](CCC(=O)O)NC(=O)[C@H](CO)NC(=O)[C@H](CCCCN)NC(=O)[C@H]([C@@H](C)O)NC(=O)[C@@H]2CSSC[C@H](NC1=O)C(=O)N[C@@H](CO)C(=O)N1CCC[C@@H]1C(=O)N1CCC[C@H]1C(=O)N[C@@H](Cc1ccccc1)C(=O)N2` [Ex. 21] (HELM PEPTIDE1{F.C.T.K.S.E.P.P.I.C.S.[dP].P}$PEPTIDE1,PEPTIDE1,2:R3-10:R3|PEPTIDE1,PEPTIDE1,1:R1-13:R2$$$V2.0), the “Trypsin at 100 μM %” value [1] was 95.6%, the “Chymase at 100 μM %” value (Chymase, from human skin [2]) was 5% and the pIC50 [3] was 7.01. For the same compound, the pIC50 ([4]; Elastase IC50) was 7.79 and the “Chymotrypsin at 100 μM %” value [5] was 2.6%.

With `CCCC[C@@H]1NC(=O)[C@@H]2CCCN2C(=O)[C@H]2CCCN2C(=O)[C@H](CCC(N)=O)NC(=O)[C@@H]2CSSC[C@H](NC1=O)C(=O)N[C@@H]([C@@H](C)O)C(=O)N[C@@H](C)C(=O)N[C@@H](CO)C(=O)N[C@@H]([C@@H](C)CC)C(=O)N1CCC[C@H]1C(=O)N1CCC[C@H]1C(=O)N[C@@H](CCC(N)=O)C(=O)N2` [Ex. 131] (HELM PEPTIDE1{[Nle].C.T.A.S.I.P.P.Q.C.Q.[dP].P}$PEPTIDE1,PEPTIDE1,2:R3-10:R3|PEPTIDE1,PEPTIDE1,1:R1-13:R2$$$V2.0) the “Trypsin at 100 μM %” value [1] was 0%, the pIC50 [3] was 7.35 and the pIC50 ([4]; read-out: Elastase IC50) was 7.55.

In the case of `CCCC[C@@H]1NC(=O)[C@@H]2CCCN2C(=O)[C@@H](C)NC(=O)[C@H](Cc2ccc(O)cc2)NC(=O)[C@@H]2CSSC[C@H](NC1=O)C(=O)N[C@@H]([C@@H](C)O)C(=O)N[C@@H](C)C(=O)N[C@@H](CO)C(=O)N[C@@H]([C@@H](C)CC)C(=O)N1CCC[C@H]1C(=O)N1CCC[C@H]1C(=O)N[C@@H](CCC(N)=O)C(=O)N2` [Ex. 130] (HELM PEPTIDE1{[Nle].C.T.A.S.I.P.P.Q.C.Y.[dA].P}$PEPTIDE1,PEPTIDE1,2:R3-10:R3|PEPTIDE1,PEPTIDE1,1:R1-13:R2$$$V2.0), the “Chymase at 100 μM %” value (Chymase, from human skin [2]) was under 4000% and the pIC50 ([4]; Elastase IC50) was 7.54.

For `CC[C@H](C)[C@@H]1NC(=O)[C@@H]2CCCN2C(=O)[C@@H]2CCCN2C(=O)[C@H](CC(=O)O)NC(=O)[C@H](CO)NC(=O)[C@H](CCCCN)NC(=O)[C@H]([C@@H](C)O)NC(=O)[C@@H]2CSSC[C@H](NC1=O)C(=O)N[C@@H](Cc1ccccc1)C(=O)N1CCC[C@@H]1C(=O)N1CCC[C@H]1C(=O)N[C@@H](CCCNC(=N)N)C(=O)N2` [Ex. 75] (HELM PEPTIDE1{R.C.T.K.S.D.P.P.I.C.F.[dP].P}$PEPTIDE1,PEPTIDE1,2:R3-10:R3|PEPTIDE1,PEPTIDE1,1:R1-13:R2$$$V2.0), the “Thrombin at 100 μM %” value [6] was 1.1%, the half-life ([7]; male, Wistar, in vivo, iv, 5 mg/kg) was 0.5 h and the level at 0.25 h ([7]; male, Wistar, iv, 5 mg/kg) was 5770 ng/mL. For the same compound, the level at 0.5 h ([7]; male, Wistar, iv, 5 mg/kg) was 3460 ng/mL, the level at 4 h ([7]; male, Wistar, iv, 5 mg/kg) was 18 ng/mL and the Cmax ([7]; male, Wistar, po) was 46 ng/mL. For the same compound, the “Vd (apparent distribution volume)” value ([7]; male, Wistar, po, 50 mg/kg) was 1.008 L/kg, the level at 4 h ([7]; male, Wistar, po, 50 mg/kg) was 24 ng/mL and the “apparent distribution volume after oral administration, fold higher than after i.v.” value [7] was “about 1.8 fold”. The “% absorbed (F) (percentage of normalized AUC0-∞ po. against normalized AUC0-∞ i.v.)” value ([7]; 5 mg/kg) was 100%, the “% absorbed (F) (percentage of normalized AUC0-∞ po. against normalized AUC0-∞ i.v.)” value ([7]; 50 mg/kg) was 1.3% and the Cmax norm ([7]; iv, 5 mg/kg) was 0.08 ng/mL. The initial distribution volume ([7]; iv, 5 mg/kg) was 355 mL/kg, the Cmax norm ([7]; po, 50 mg/kg) was 0.25 ng/mL and the “Trypsin at 100 μM %” value [8] was 92.6%. For the same compound, the “Stability human Plasma t1/2” value [9] was 5 h, the “Stability rat Plasma t1/2” value [9] was 5 h and the “Tryptase at 100 μM %” value [10] was 0%. The “Chymotrypsin at 100 μM %” value [11] was 7.8 at 100 μM %, the pIC50 [3] was 7.07 and the “Elastase at 100 μM %” value ([4]; at 100 μM (stated in cell instead of IC50)) was 69.1 at %. The “Chymase at 100 μM %” value (Chymase, from human skin [12]) was 0%, the “Urokinase at 100 μM %” value [13] was 5.7% and the “FXa at 100 μM %” value [14] was 5.7%.

— US8658604B2, “Template-fixed beta-hairpin peptidomimetics with protease inhibitory activity” (Polyphor Ltd, priority 2005, dated 2014)
